Our source for the IC90 values is patent US20230012368A1 (Hoffmann-La Roche Inc., priority 2018, published 2023).

Counter-ions that a name gives are not always drawn.

The first assay relates to Acinetobacter baumannii ATCC 17978. As to the kind of experiment: Antimicrobial susceptibility testing: 90% growth inhibitory concentration (IC90) determination. In kind it is cell-based. Particulars: 90% growth inhibitory concentration; Acinetobacter baumannii ATCC17978; Iso-Sensitest broth, OD 600 nm over 16h; read-out: ATCC17978 IC90. In outline:
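Compounds serially twofold diluted (e.g. 50 to 0.097 μM final) in Iso-Sensitest broth, inoculated at ~5×10^(5) CFU/ml, incubated at 35±2° C. OD600 read every 20 minutes over 16h. IC90 taken as concentration inhibiting 90% of growth during logarithmic phase.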
Usually IC90 stands for the concentration at which the effect reaches the 90% level. Regarding `CCc1cc(Nc2nccn3c(-c4ccc(OC)c(F)c4F)cnc23)ccc1C(=O)N[C@H](CN)C(=O)OC` [Example 310, methyl (2R)-3-amino-2-[[4-[[3-(2,3-difluoro-4-methoxyphenyl)imidazo[1,2-a]pyrazin-8-yl]amino]-2-ethylbenzoyl]amino]propanoate; hydrochloride], the IC90 is 800 nM.

Staying with this assay, now noted: Acinetobacter baumannii, ATCC17978, 16 h, 90% growth inhibitory concentration; Acinetobacter baumannii ATCC17978; Iso-Sensitest broth, OD 600 nm over 16h; read-out: ATCC17978 IC90.
As for `Cc1cc(Nc2nccn3c(-c4ccc(OC(F)F)cc4)cnc23)ccc1C(=O)N[C@H](C)CN` [Example 270, N-[(2R)-1-aminopropan-2-yl]-4-[[3-[4-(difluoromethoxy)phenyl]im-idazo[1,2-a]pyrazin-8-yl]amino]-2-methylbenzamide;hydrochlo-ride], the IC90 came to 7700 nM.

Take `COc1ccc(-c2cnc3c(Nc4ccc(C(=O)NCCN5CCNCC5)c(C)c4)nccn23)cc1F` [Example 199, 4-[[3-(3-fluoro-4-methoxyphenyl)imidazo[1,2-a]pyrazin-8-yl]amino]-2-methyl-N-(2-piperazin-1-ylethyl)benzamide;hydrochlo-ride]: the IC90 turned out to be 420 nM.

On to `COc1ccc(-c2cnc3c(Nc4ccc(C(=O)NCCCCCCN)c(C)c4)nccn23)cc1` [Example 10, N-(6-aminohexyl)-4-((3-(4-methoxyphenyl)imidazo [1,2-a]pyrazin-8-yl)amino)-2-methylbenzamide hydrochloride], for which the concentration for an effect of 90% (IC90) is 110 nM.

Consider `C=Cc1cc(Nc2nccn3c(-c4ccc(OC(F)F)cc4)cnc23)ccc1C(=O)NC` [Example 92, 4-((3-(4-(difluoromethoxy)phenyl)imidazo[1,2-a]pyrazin-8-yl)amino)-N-methyl-2-vinylbenzamide], for which the 90% effect concentration (IC90) worked out at 610 nM.

Turning to `COc1ccc(-c2cnc3c(Nc4ccc(C(=O)N[C@H](C)CN)c(Cl)c4)nccn23)c(F)c1F` [Example 504, #N!-[(2#R!)-1-aminopropan-2-yl]-2-chloro-4-[[3-(2,3-difluoro-4-methoxyphenyl)imidazo[1,2-a]pyrazin-8-yl]amino]benzamide;dihydro-chloride], the IC90 came to 100 nM.

`COc1ccc(-c2cnc3c(Nc4ccc(C(=O)NCCNC(=O)[C@@H]5C[C@@H](O)CN5)c(C)c4)nccn23)c(F)c1F` [Example 363, (2S,4R)-N-[2-[[4-[[3-(2,3-difluoro-4-methoxyphenyl)imidazo[1,2-a]pyrazin-8-yl]amino]-2-methylbenzoyl]amino]ethyl]-4-hydroxypyrrolidine-2-carboxamide]: the 90% effect concentration (IC90) turned out to be 90 nM.

In the case of `COc1ccc(-c2cnc3c(Nc4ccc(C(=O)N(C)CCC(=O)N5CCNCC5)c(C)c4)nccn23)cc1F` [Example 3, 4-[[3-(3-fluoro-4-methoxy-phenyl)imidazo[1,2-a]pyrazin-8-yl]amino]-N,2-dimethyl-N-(3-oxo-3-piperazin-1-yl-propyl)benzamide], the concentration for an effect of 90% (IC90) came out at 210 nM.

As to `CCc1cc(Nc2nccn3c(-c4ccc(Oc5ccccn5)c(F)c4F)cnc23)ccc1C(=O)NCCCCC(=O)N1CCN[C@H](CO)C1` [Example 477, 4-[[3-[2,3-difluoro-4-(2-pyridyloxy)phenyl]imidazo [1,2-a]pyrazin-8-yl]amino]-2-ethyl-N-[5-[(3S)-3-(hydroxymethyl)piperazin-1-yl]-5-oxo-pentyl]benzamide], the IC90 stood at 330 nM.

Turning to `COc1ccc(-c2cnc3c(Nc4ccc5c(c4)CCN(C)C5=O)nccn23)c(F)c1F` [Example 391, 6-[[3-(2,3-difluoro-4-methoxy-phenyl)imidazo[1,2-a]pyrazin-8-yl]amino]-2-methyl-3,4-dihydroisoquinolin-1-one], the concentration for an effect of 90% (IC90) turned out to be 51 nM.

On to `COc1ccc(-c2cnc3c(Nc4ccc(C(=O)N(C)CC5OCC(N)CO5)c(C)c4)nccn23)cc1` (stereo not shown) [Example 153, N-((5-Amino-1,3-dioxan-2-yl)methyl)-4-((3-(4-methoxyphenyl)imidazo[1,2-a]pyrazin-8-yl)amino)-N,2-dimethylbenzamide], for which the IC90 was 530 nM.

Turning to `Cc1cc(Nc2nccn3c(-c4ccc(OC(F)F)cc4)cnc23)ccc1C(=O)N(C)CCN1CCOCC1` [Example 250, 4-[[3-[4-(difluoromethoxy)phenyl]im-idazo[1,2-a]pyrazin-8-yl]amino]-N,2-dimethyl-N-(2-morpholin-4-ylethyl)benzamide], the concentration for an effect of 90% (IC90) came out at 1200 nM.

Take `CCc1cc(Nc2nccn3c(-c4ccc(OC(F)F)c(F)c4F)cnc23)ccc1C(=O)NCCNC(=O)[C@H](N)CCCNC(=N)N` [Example 132, N-[2-[[(2R)-2-amino-5-guanidino-pentanoyl]amino]ethyl]-4-[[3-[4-(difluoromethoxy)-2,3-difluoro-phenyl]imidazo[1,2-a]pyrazin-8-yl]amino]-2-ethyl-benzamide formate]: the IC90 was 230 nM.

Consider `CCc1cc(Nc2nccn3c(-c4ccc(OC)c(F)c4F)cnc23)ccc1C(=O)NCC(O)CNC(=O)CN` (stereo not shown) [Example 374, N-[3-[(2-aminoacetyl)amino]-2-hydroxypropyl]-4-[[3-(2,3-difluoro-4-methoxyphenyl)imidazo[1,2-a]pyrazin-8-yl]amino]-2-ethylbenzamide], for which the concentration for an effect of 90% (IC90) came to 190 nM.

Regarding `Cc1cc(Nc2nccn3c(-c4ccc(OC(F)F)cc4)cnc23)ccc1C(=O)NCCSc1nnnn1C` [Example 176, 4-[[3-[4-(difluoromethoxy)phenyl]im-idazo[1,2-a]pyrazin-8-yl]amino]-2-methyl-N-[2-(1-methyltetrazol-5-yl)sulfanylethyl]benzamide], the IC90 is 520 nM.

`N#CCOc1ccc(-c2cnc3c(Nc4ccc(C(=O)NCC5CCNCC5)c(Cl)c4)nccn23)c(F)c1F` [Example 79, 2-chloro-4-[[3-[4-(cyanomethoxy)-2,3-difluoro-phenyl]imidazo[1,2-a]pyrazin-8-yl]amino]-N-(4-piperidylmethyl) benzamide]: the concentration for an effect of 90% (IC90) was found to be 90 nM.

As to `N#CCOc1ccc(-c2cnc3c(Nc4ccc(C(=O)NCc5cc[nH]c(=O)c5)c(Cl)c4)nccn23)c(F)c1F` [Example 85, 2-chloro-4-[[3-[4-(cyanomethoxy)-2,3-difluoro-phenyl]imidazo[1,2-a]pyrazin-8-yl]amino]-N-[(2-oxo-1H-pyridin-4-yl)methyl]benzamide], the IC90 is 70 nM.

As for `COc1ccc(-c2cnc3c(Nc4ccc(C(=O)NCCCN5CCN(C)C(=O)C5)c(C)c4)nccn23)c(F)c1F` [Example 66, 4-((3-(2,3-difluoro-4-methoxyphenyl)imidazo [1,2-a]pyrazin-8-yl)amino)-2-methyl-N-(3-(4-methyl-3-oxopiperazin-1-yl)propyl)benzamide], the 90% effect concentration (IC90) came out at 310 nM.

Take `O=C(NCC1CCNCC1)c1ccc(Nc2nccn3c(-c4ccc(OC(F)F)c(F)c4F)cnc23)cc1Cl` [Example 43, 2-chloro-4-[[3-[4-(difluoromethoxy)-2,3-difluoro-phenyl]imidazo[1,2-a]pyrazin-8-yl]amino]-N-(4-piperidylmethyl) benzamide; 2,2,2-trifluoroacetic acid]: the IC90 was 220 nM.

Consider `CNC(=O)c1ccc(Nc2nccn3c(-c4ccc(OC)c(F)c4)cnc23)cc1Cl` [Example 22, 2-chloro-4-((3-(3-fluoro-4-methoxyphenyl)imidazo [1,2-a]pyrazin-8-yl)amino)-N-methylbenzamide], for which the concentration for an effect of 90% (IC90) came to 130 nM.

In the case of `CCc1cc(Nc2nccn3c(-c4ccc(OC)c(F)c4F)cnc23)ccc1C(=O)NCCC1CCNCC1` [Example 388, 4-[[3-(2,3-difluoro-4-methoxyphenyl)imidazo[1,2-a]pyrazin-8-yl]amino]-2-ethyl-N-(2-piperidin-4-ylethyl)benzamide; hydrochlo-ride], the 90% effect concentration (IC90) was 200 nM.

As to `COc1ccc(-c2cnc3c(Nc4ccc(C(=O)NCCN)c(C)c4)nccn23)cc1` [Example 31, N-(2-aminoethyl)-4-((3-(4-methoxyphenyl)imidazo [1,2-a]pyrazin-8-yl)amino)-2-methylbenzamide], the 90% effect concentration (IC90) was 2900 nM.

`CCc1cc(Nc2nccn3c(-c4ccc(OC)c(F)c4F)cnc23)ccc1C(=O)NCC1CN(C(=O)CN)C1` [Example 532, N-[[1-(2-aminoacetyl)azetidin-3-yl]methyl]-4-[[3-(2,3-difluoro-4-methoxy-phenyl)imidazo[1,2-a]pyrazin-8-yl]amino]-2-ethyl-benzamide; formic acid]: the concentration for an effect of 90% (IC90) was 61 nM.

With `COc1ccc(-c2cnc3c(Nc4ccc(C(=O)N(C)Cc5ccncc5)c(C)c4)nccn23)cc1F` [Example 73, 4-((3-(3-fluoro-4-methoxyphenyl)imidazo [1,2-a]pyrazin-8-yl)amino)-N,2-dimethyl-N-(pyridin-4-ylmethyl)benzamide], the IC90 is 140 nM.

As to `CCc1cc(Nc2nccn3c(-c4ccc(OC)c(F)c4F)cnc23)ccc1C(=O)NCC[C@H](C)NC(=O)[C@@H](N)CCCNC(=N)N` [Example 336, N-[(3S)-3-[[(2S)-2-amino-5-carbamimidamidopentanoyl]amino]butyl]-4-[[3-(2,3-difluoro-4-methoxyphenyl)imidazo[1,2-a]pyrazin-8-yl]amino]-2-ethylbenzamide; hydrochloride], the IC90 was 480 nM.

On to `COc1ccc(-c2cnc3c(Nc4ccc(C(=O)N(C)CCN5CCNCC5)c(C)c4)nccn23)c(F)c1F` [Example 61, 4-((3-(2,3-difluoro-4-methoxyphenyl)imidazo [1,2-a]pyrazin-8-yl)amino)-N,2-dimethyl-N-(2-(piperazin-1-yl)ethyl)benzamide], for which the IC90 was 190 nM.

On to `CCCc1cc(Nc2nccn3c(-c4ccc(OC(F)F)cc4)cnc23)ccc1C(=O)NC` [Example 152, 4-((3-(4-(Difluoromethoxy)phenyl)imidazo[1,2-a]pyrazin-8-yl)amino)-N-methyl-2-propylbenzamide], for which the IC90 stood at 1100 nM.

In the case of `CCc1cc(Nc2nccn3c(-c4ccc(OCC#N)c(F)c4F)cnc23)ccc1C(=O)NCCNC(=O)[C@@H](N)CCCN` [Example 140, 4-[[3-[4-(cyanomethoxy)-2,3-difluoro-phenyl]imidazo[1,2-a]pyrazin-8-yl]amino]-N-[2-[[(2S)-2,5-diaminopentanoyl]amino]ethyl]-2-ethyl-benzamide formate], the IC90 was found to be 170 nM.
